Experimental data taken from US20230257374A1, “NOVEL KRAS G12C PROTEIN INHIBITOR, PREPARATION METHOD THEREFOR, AND USE THEREOF” (INNOVENT BIOLOGICS (SUZHOU) CO., LTD., priority 2019, published 2023).
Read-outs that look alike come from different tables or passages of the source.

Tests used:
KRAS G12C protein = target: T1, KRAS G12C protein (Homo sapiens, UniProt P01116, G12C); assay: ERK protein phosphorylation assay (p-ERK) in H358 cells; assay type: cell-based; parameters: scale not given here; details: H358 cells expressing KRAS G12C protein, 3 h incubation with compound; read-out: IC50, inhibiting phosphorylation of KRAS G12C protein-mediated downstream signaling (p-ERK)
T1 construct: H358 cells (ATCC, CRL-5807) expressing KRAS G12C protein; host or cells: H358 (NCI-H358) cells
Description: The cells were cultured in a 5% CO2 cell incubator for 16 h. The serially diluted compound was added to the cell medium with Echo550 at a final DMSO concentration of 0.5%, and the incubation was continued for 3 h. Then 8% paraformaldehyde (Solarbio, P1112) was added at 40 μL/well, followed by incubation at room temperature for 20 min. After one washing with PBS, cold 100% methanol was added at 40 μL/well for permeabilization for 10 min. […] Washing with PBST was performed 3 times, with 2 min of incubation for each washing. […] Washing with PBST was performed 3 times, with 2 min of incubation for each washing. Finally, the cell culture plate was inverted and centrifuged at 1000 rpm for 1 min, after which fluorescence signals were read using Odyssey CLx.

[1] = system: H1373 cell line (K-RAS G12C); assay: cells; assay type: cell-based
Description: (§1) a) On day 1, seed cells were placed in T75 a flask. b) On day 3, the medium was taken out and washed once with DPBS. c) Cells were trypsinized with 2 mL TrypLE™ Express enzyme at room temperature (RT) or 37° C. until cells detached. d) 5 mL of fresh medium was added to suspend the cells, and then the suspension was centrifuged at 1000 rpm and room temperature for 5 min. e) The supernatant was discarded, and the cells were resuspended in 5 mL of fresh medium and counted using Countess™ H. f) The cells were seeded back into the T75 flask for further culture or placed into an assay plate for 3D cell proliferation assay.
(§2) The cells were seeded at a density of 600 cells/well in a 384-well plate with 40 μL of medium per well and a final DMSO concentration of 0.5%. b) On day 4, a 3D CTG reagent was added to each well, followed by shaking at room temperature for 1 h. c) The signals were recorded using Envision.
(§3) a) Robustness was examined using 0.5% DMSO and data of blank control medium: H=mean (DMSO); L=mean (medium); SD (H)=STDEV (DMSO); SD (L)=STDEV (medium);
(§4) Y=peak valley value+(peak top value−peak valley value)/(1+10^((Log IC50−X)×HillSlope));
(§5) X: logarithm of compound concentration; Y: percent inhibition (% inhibition); Peak top and peak valley values: the plateau period units are the same as Y; log IC50: the same logarithmic unit as X; HillSlope: slope coefficient or Hill slope.

[2] = system: MIA PaCa-2 cell line (K-RAS G12C); assay: cells; assay type: cell-based
Description: as §1, §2, §3, §4, §5

[3] = system: PC-9 cell line (K-RAS wild type); assay: cells; assay type: cell-based; details: Homo sapiens, PC-9, 96 h; 3D culture, CellTiter-Glo 3D, read on day 4
Description: as §1, §2, §3, §4, §5

[4] = system: H358 cell line (K-RAS G12C); assay: cells; assay type: cell-based, human
Description: as §1, §2, §3, §4, §5

[5] = system: NCI-H358 tumor (K-RAS G12C mutation); assay type: in vivo, BALB/c nude mice; details: for Tumor regression: animals with regression / group of 8
Description: The cells were digested with trypsin-EDTA twice a week for passaging as per conventional practice. When the cell saturation reached 80%-90% and a required amount was achieved, the cells were collected and counted for later use. […] 5% DMSO/5% Solutol/90% water was used as a blank control. 3) Tumor inoculation and drug administration: BALB/c nude mice, female, 6-8 weeks old, weighing 18-20 g. The experiment started after 3-7 days of adaptive feeding. 0.1 mL of NCI-H358 cells (5×10^6 cells) were inoculated subcutaneously on the right back of each mouse. The mice were grouped for administration when the average tumor volume reached approximately 150 mm^3. The animals were weighed before administration and the tumor volume was measured. Grouping was randomly performed according to the tumor volume.
Animals were monitored daily for health and death, and routine examinations include observation of the effect of tumor growth and drug treatment on the daily performance of the animals, such as behavioral activities, food and water intake, weight changes (measured once every other day), appearance, or other abnormal conditions. Animal mortality and side effects within each group were recorded based on the number of animals in the group.
Tumor diameters were measured 2-3 times weekly using a vernier caliper.
The tumor volume was calculated as follows: […]
where a and b represent the long and short diameters of the tumor, respectively.
The anti-tumor therapeutic effect of the compound was evaluated by tumor growth inhibition rate TGI (%) or relative tumor proliferation rate T/C (%).
TGI (%) was calculated as follows: […]
T/C (%) was calculated as follows: […]
where TRTV represents the relative tumor volume of the treatment group; CRTV represents the relative tumor volume of the solvent control group.
Based on the results of tumor measurement, the relative tumor volume (RTV) was calculated as follows: […]
where V0 represents the average tumor volume measured at the time of grouping and administration (i.e., d0), Vt represents the average tumor volume in a certain measurement, and TRTV and CRTV take the data on the same day.
After the completion of the experiment, tumors were weighed, and the percentage of Tweight/Cweight was calculated, where Tweight and Cweight represent the tumor weights of the treatment group and the solvent control group, respectively.
Data calculation and analysis: T test was employed for comparison between two groups. One-way ANOVA was employed for comparison between three or more groups. If there is a significant difference in F-values, multiple comparisons should be made after ANOVA analysis. All data analyses were performed with SPSS 17.0. p<0.05 was defined as a significant difference.

[6] = Stability test in human plasma
Description: (§11) To examine the stability of the test compounds in plasma, representative compounds were selected for evaluation.
(§12) Preparation of stock solution: a test compound was dissolved in DMSO to prepare a 1 mM stock solution for later use; Propantheline Bromide was dissolved in acetonitrile to prepare a 1 mM stock solution as a positive control for later use.
(§13) To each well was added 2 μL of the stock solution of the test compound and the stock solution of the positive control such that the final concentrations were 5 KM and the concentration of the organic solvent was 0.5%. Each compound was prepared in duplicate, followed by incubation at 37° C. 50 μL of samples were taken from the reaction samples in equal amounts at 0, 30, 60, 120, 180 and 240 minutes, and 450 μL of cold acetonitrile containing an internal standard was added to terminate the reaction. […] 100 μL of the supernatants were transferred to a new plate, dilute with ultra-pure water, and analyzed by LC-MS/MS.
(§14) Data results were calculated according to peak area ratios.
(§15) The percentage of remaining compound for each time point was calculated as follows:
(§16) Remaining percentagemin(%)=peak area ratiosmin/peak area ratiomin×100%
(§17) where peak area ratios represents the peak area ratio of the test compound to the internal standard compound at t min; peak area ratiomin represents the peak area ratio of the test compound to the internal standard compound at 0 min (initial).

in vitro [7] = details: human, Caco-2, pH 7.4
Description: (§6) Drug penetration test: the Transwell culture plate was retrieved from the incubator. […] All samples were prepared in double parallel. The integrity of the cell monolayer membrane after 2 hours of incubation was assessed using leakage of fluorescein; fluorescein stock solution was diluted with HBSS (25 mM HEPES, pH 7.4) to a final concentration of 100 μM. 100 μL of fluorescein solution was added to each well of the upper Transwell plate and 300 μL of HBSS (25 mM HEPES, pH 7.4) was added to each well of the lower receiving plate; after incubation at 37° C. for 30 min, 80 μL of the solution was pipetted from the upper and lower layers of each well to a new 96-well plate.
(§7) The apparent permeability coefficients (Papp, unit: cm/s) of the compounds in Caco-2 cells were calculated from the specific concentrations at the acceptor and donor ends, and the specific calculation formula is as follows: […]
(§8) where VA represents the volume of the acceptor end solution (0.3 mL for Ap→Bl, 0.1 mL for Bl→Ap); Area represents the area of the Transwell-96 well plate (0.143 cm^2); time represents the incubation time (unit: s); [drug]acceptor represents the drug concentration (ratio of peak area to internal standard area) at the acceptor end; [drug]initial, donor represents the drug concentration at the donor end (ratio of peak area to internal standard area).
(§9) The efflux ratio was calculated as follows: […]
(§10) where Papp (B-A) represents the apparent permeability coefficient from base end to top end; Papp (A-B) represents the apparent permeability coefficient from top end to base end.

Caco-2 cells = assay: in vitro; details: Caco-2
Description: as §6, §7, §8, §9, §10

in vitro [8] = details: microsomes
Description: To examine the in vitro metabolic stability of the test compounds in liver microsomes of different species, representative compounds were selected, and their stability was evaluated by measuring the concentration of the test compounds in the incubation system using LC/MS/MS and calculating their intrinsic clearance in the microsome system.
The method is specifically as follows: each compound was first dissolved in DMSO to prepare a 200 μM working solution and added to the system solution at the time of testing to form a solution with a final concentration of 1 μM.
The microsomes were stored in a −80° C. freezer.
Preparation of incubation system: an incubation system was prepared as described in the table below.
25 μL, of NADPH or phosphate buffered saline was transferred to the incubation system described above, and 2 μL, of 200 μM of the test compound or verapamil was added. The sample with NADPH added was prepared in duplicate; the NADPH negative sample was prepared in single parallel. 30 μL, of suspension was taken at 0.5, 5, 15, 30 and 60 minutes. The reaction system was terminated by adding 180 μL, of acetonitrile containing an internal standard and vortexed for 10 min. […] 100 μL, of the supernatant was transferred to a feeding plate, and 100 μL, of purified water was added. The mixture was well mixed for UPLC-MS/MS analysis.
The results based on the data were obtained by calculation according to the peak area ratio, and the peak area was detected through an extracted ion chromatogram.
The slope value (k) was determined by linear fitting of the natural logarithm of drug elimination percentage over time.

[9] = human, plasma
Description: as §11, §12, §13, §14, §15, §16, §17

T1 sequence (P01116 1-188 isoform P01116-2 G12C): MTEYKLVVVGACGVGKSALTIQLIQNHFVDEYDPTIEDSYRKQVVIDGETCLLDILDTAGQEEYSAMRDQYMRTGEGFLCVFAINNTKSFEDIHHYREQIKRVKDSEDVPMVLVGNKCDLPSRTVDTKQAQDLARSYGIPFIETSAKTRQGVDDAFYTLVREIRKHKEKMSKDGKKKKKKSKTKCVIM

[2H]C([2H])([2H])c1cccc2cccc(N3CCc4c(nc(OC[C@@H]5CCCN5C([2H])([2H])[2H])nc4N4CCN(C(=O)C=C)[C@@H](CC#N)C4)C3)c12 [Compound 17, 2-((S)-1-acryloyl-4-(7-(8-(methyl-d3)naphthalen-1-yl)-2-(((S)-1-(methyl-d3)pyrrolidin-2-yl)methoxy)-5,6,7,8-tetrahydropyrido[3,4-d]pyrimidin-4-yl)piperazin-2-yl)acetonitrile]
IC50 (KRAS G12C protein): < 1000 nM
IC50 ([1]; Homo sapiens, NCI-H1373, 96 h, 3D culture, CellTiter-Glo 3D, read on day 4, read-out: H1373 (K-RAS G12C) IC50): 0.32 nM
Selectivity (fold number of mutant vs. wild type) ([1]; PC-9 IC50 vs. H1373 IC50): 14656 fold
IC50 ([2]; Homo sapiens, MIA PaCa-2, 96 h, 3D culture, CellTiter-Glo 3D, read on day 4, read-out: MIA PaCa-2 (K-RAS G12C) IC50): 0.44 nM
Selectivity (fold number of mutant vs. wild type) ([2]; PC-9 IC50 vs. MIA PaCa-2 IC50): 10659 fold
IC50 [3]: 4690 nM
IC50 ([4]; Homo sapiens, NCI-H358, 96 h, 3D culture, CellTiter-Glo 3D, read on day 4, read-out: H358 (K-RAS G12C) IC50): 0.34 nM
Selectivity (fold number of mutant vs. wild type) ([4]; PC-9 IC50 vs. H358 IC50): 13794 fold
Day 0 Tumor volume (mm^3) Vaverage ± SEM ([5]; Day 0 (at grouping, before administration), 15 mg/kg PO QD group): 151 ± 10 mm^3
Day 21 Tumor volume (mm^3) Vaverage ± SEM ([5]; Day 21, 15 mg/kg PO QD): 90 ± 12 mm^3
Tumor inhibition rate TGI (%) ([5]; Day 21, 15 mg/kg PO QD): 110.7%
Tumor regression ([5]; Day 21, 15 mg/kg PO QD): 8/8
Tumor regression ([5]; Day 21, 15 mg/kg PO QD, listed as compound 17): the tumors in all of the animals regressed
Day 0 Body weight (g) Waverage ± SEM ([5]; mouse, in vivo, po, 15 mg/kg): 22.6 ± 0.7 g
Remaining percentage (%) 0 min ([6]; human plasma, 37° C., 0 min): 100.00%
Remaining percentage (%) 30 min ([6]; human plasma, 37° C., 30 min): 97.00%
Remaining percentage (%) 60 min ([6]; human plasma, 37° C., 60 min): 92.97%
Remaining percentage (%) 120 min ([6]; human plasma, 37° C., 120 min): 78.91%
Remaining percentage (%) 180 min ([6]; human plasma, 37° C., 180 min): 59.98%
Remaining percentage (%) 240 min ([6]; human plasma, 37° C., 240 min): 47.82%
half-life at 5 μM ([6]; human, plasma): 3.63 h

C[C@H]1O[C@@H](O[C@H]2[C@@H](O)C[C@H](O[C@H]3[C@@H](O)C[C@H](O[C@H]4CC[C@@]5(C)[C@H](CC[C@@H]6[C@@H]5C[C@@H](O)[C@]5(C)[C@@H](C7=CC(=O)OC7)CC[C@]65O)C4)O[C@@H]3C)O[C@@H]2C)C[C@H](O)[C@@H]1O [Digoxin]
Papp A→B at 2 h, 10 μM (in vitro [7]): 2.5 nm/s
Papp B→A at 2 h, 10 μM (in vitro [7]): 164 nm/s
efflux ratio at 2 h, 10 μM (in vitro [7]): 65.2

COCCc1ccc(OCC(O)CNC(C)C)cc1 (centres unmarked) [Metoprolol]
Papp A→B at 2 h, 10 μM (in vitro [7]): 226 nm/s
Papp B→A at 2 h, 10 μM (in vitro [7]): 195 nm/s
efflux ratio at 2 h, 10 μM (in vitro [7]): 0.86

C=CC(=O)N1CCN(c2nc(=O)n(-c3c(C)ccnc3C(C)C)c3nc(-c4c(O)cccc4F)c(F)cc23)[C@@H](C)C1 [AMG510]
Papp A→B at 2 h, 10 μM (in vitro [7]): 6 nm/s
Papp B→A at 2 h, 10 μM (in vitro [7]): 274 nm/s

C=CC(=O)N1CCN(c2nc(OC[C@@H]3CCCN3C)nc3c2CCN(c2cccc4cccc(C)c24)C3)C[C@@H]1CC#N [MRTX-1257, reference compound]
Efflux ratio (Caco-2 cells): 16.31
CLint (μL/min/mg protein) (in vitro [8]; human): 54.30 μL/min/mg protein
t1/2 (in vitro [8]; human): 0.4263 h
CLint (μL/min/mg protein) (in vitro [8]; mouse): 74.97 μL/min/mg protein
t1/2 (in vitro [8]; mouse): 0.3082 h
t1/2 [9]: 1.608 h
Remaining percentage (%) 0 min ([9]; 0 h): 100.00%
Remaining percentage (%) 30 min ([9]; 0.5 h): 88.91%
Remaining percentage (%) 60 min ([9]; 1 h): 82.31%
Remaining percentage (%) 120 min ([9]; 2 h): 55.64%
Remaining percentage (%) 180 min ([9]; 3 h): 32.06%
Remaining percentage (%) 240 min ([9]; 4 h): 18.12%
